Laboratory results published in ChEMBL document CHEMBL1201862, “PubChem BioAssay data set” (2004).
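Assay format: 96-well plates, 48-hour exposure. GI50 = concentration required for 50% inhibition of growth.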 Calls of active or inactive are those of the source. Cut-off read from the data, not from the text of the source: active = GI50 up to about 1.1 µM and inactive = higher.

How the values were obtained:
Experiment in all cases: NCI-60 cell line screen, 48 h
[1] = tested on: A549
[2] = tested on: BT-549
[3] = tested on: HCT-116
[4] = tested on: HL-60
[5] = tested on: HOP-62
[6] = tested on: HOP-92
[7] = tested on: MDA-MB-231
[8] = tested on: MDA-N
[9] = tested on: Malme-3M
[10] = tested on: NCI-H226
[11] = tested on: NCI-H23
[12] = tested on: NCI-H522
[13] = tested on: OVCAR-8
[14] = tested on: SF-268
[15] = tested on: SK-MEL-28
[16] = tested on: SNB-75
[17] = tested on: T47D
[18] = tested on: U-251
[19] = tested on: UACC-257
[20] = tested on: UACC-62

Structure (SMILES) | GI50 [1] | GI50 [2] | GI50 [3] | GI50 [4] | GI50 [5] | GI50 [6] | GI50 [7] | GI50 [8] | GI50 [9] | GI50 [10] | GI50 [11] | GI50 [12] | GI50 [13] | GI50 [14] | GI50 [15] | GI50 [16] | GI50 [17] | GI50 [18] | GI50 [19] | GI50 [20]
CC1OC(OC2CC(O)(C(=O)CO)Cc3c(O)c4c(c(O)c32)C(=O)c2ccccc2C4=O)CC(N)C1O (centres undefined) | < 0.01 µM (active) | 0.171 µM (active) | < 0.01 µM (active) | < 0.01 µM (active) | < 0.01 µM (active) | < 0.0338 µM (active) | 0.431 µM (active) | 0.0652 µM (active) | < 0.01 µM (active) | < 0.01 µM (active) | 0.0162 µM (active) | < 0.0183 µM (active) | 0.0171 µM (active) | < 0.0163 µM (active) | 0.0573 µM (active) | < 0.0137 µM (active) | < 0.01 µM (active) | < 0.01 µM (active) | 0.054 µM (active) | 0.0101 µM (active)
COC(=O)/C=C/C1(O)C=CC(=O)C=C1 | 8.3 µM (inactive) | 5.27 µM (inactive) | 1.88 µM (inactive) | 2.38 µM (inactive) | 4.37 µM (inactive) | 3.66 µM (inactive) | 2.95 µM (inactive) | 1.89 µM (inactive) | 2.62 µM (inactive) | 19.6 µM (inactive) | 3.31 µM (inactive) | 0.338 µM (active) | 3.4 µM (inactive) | 2.22 µM (inactive) | 3.44 µM (inactive) | 9.86 µM (inactive) | 2.67 µM (inactive) | 3.67 µM (inactive) | 3.3 µM (inactive) | 3 µM (inactive)
CC(C)(C)OC(=O)C1C(=O)NC(=O)CC1C(COCc1ccccc1)OCc1ccccc1 (centres undefined) | 30.4 µM (inactive) | 32.1 µM (inactive) | 18.6 µM (inactive) | 21.4 µM (inactive) | 12.1 µM (inactive) | 15.5 µM (inactive) | 17.2 µM (inactive) | 18 µM (inactive) | 19.8 µM (inactive) | 17.6 µM (inactive) | 32.6 µM (inactive) | 15.8 µM (inactive) | 29.3 µM (inactive) | 26.7 µM (inactive) | 18.1 µM (inactive) | – | 14.3 µM (inactive) | 20.5 µM (inactive) | 20.7 µM (inactive) | –
Cc1cc(/N=C2\C=C(Nc3cc(C)on3)C(=O)c3ccccc32)no1 | 31.2 µM (inactive) | 27.5 µM (inactive) | 53.7 µM (inactive) | > 100 µM (inactive) | > 61.1 µM (inactive) | 19 µM (inactive) | 12.9 µM (inactive) | 1.96 µM (inactive) | 21.5 µM (inactive) | > 92 µM (inactive) | 4.69 µM (inactive) | > 100 µM (inactive) | 37.3 µM (inactive) | 36.9 µM (inactive) | 60.5 µM (inactive) | 31.6 µM (inactive) | 47.3 µM (inactive) | 30.1 µM (inactive) | 13.9 µM (inactive) | 12 µM (inactive)
CN(C(=O)C12C3C4C1C1C2C3C41C(=O)O)C(C)(C)C (centres undefined) | > 100 µM (inactive) | > 100 µM (inactive) | > 100 µM (inactive) | > 100 µM (inactive) | > 100 µM (inactive) | > 100 µM (inactive) | > 100 µM (inactive) | > 100 µM (inactive) | – | – | > 100 µM (inactive) | > 100 µM (inactive) | > 100 µM (inactive) | > 100 µM (inactive) | > 100 µM (inactive) | > 100 µM (inactive) | > 100 µM (inactive) | > 100 µM (inactive) | > 100 µM (inactive) | > 100 µM (inactive)
CC1(C)CC(=O)C(C(c2cccc(O)c2O)C2C(=O)CC(C)(C)CC2=O)C(=O)C1 | > 100 µM (inactive) | > 100 µM (inactive) | > 100 µM (inactive) | < 0.01 µM (active) | > 100 µM (inactive) | 49.3 µM (inactive) | > 100 µM (inactive) | > 100 µM (inactive) | > 100 µM (inactive) | > 100 µM (inactive) | > 100 µM (inactive) | 63.2 µM (inactive) | 81.7 µM (inactive) | 73.8 µM (inactive) | > 100 µM (inactive) | > 100 µM (inactive) | 91.2 µM (inactive) | > 100 µM (inactive) | > 100 µM (inactive) | > 100 µM (inactive)
C[C@H](CCC(=O)NN)[C@H]1CC[C@H]2[C@@H]3CC[C@@H]4C[C@H](O)CC[C@]4(C)[C@H]3CC[C@]12C | 54.1 µM (inactive) | 57.8 µM (inactive) | 41 µM (inactive) | 8.53 µM (inactive) | > 100 µM (inactive) | > 86.5 µM (inactive) | 40.8 µM (inactive) | 75.7 µM (inactive) | 52.1 µM (inactive) | > 74.6 µM (inactive) | 41.2 µM (inactive) | 29.2 µM (inactive) | 37.2 µM (inactive) | 65.3 µM (inactive) | > 74.8 µM (inactive) | – | 24.8 µM (inactive) | > 73.5 µM (inactive) | 61.7 µM (inactive) | > 100 µM (inactive)
O=C(O[C@H](/C=C/c1ccccc1)P1(=O)N(Cc2ccccc2)[C@@H]2CCCC[C@H]2N1Cc1ccccc1)c1ccccc1 | 3.66 µM (inactive) | 4.55 µM (inactive) | 3.01 µM (inactive) | 3.66 µM (inactive) | 5.38 µM (inactive) | 1.91 µM (inactive) | 3.16 µM (inactive) | 3.68 µM (inactive) | 2.49 µM (inactive) | 2.61 µM (inactive) | 2.47 µM (inactive) | 3.95 µM (inactive) | 3.95 µM (inactive) | 4.06 µM (inactive) | 3.05 µM (inactive) | – | 0.875 µM (active) | 3.26 µM (inactive) | 7.87 µM (inactive) | 4.86 µM (inactive)
c1csc(-c2csc(-c3ccsc3)c2)c1 | 99.5 µM (inactive) | > 100 µM (inactive) | > 100 µM (inactive) | > 74.6 µM (inactive) | > 100 µM (inactive) | > 100 µM (inactive) | > 100 µM (inactive) | > 100 µM (inactive) | 56.4 µM (inactive) | > 57.5 µM (inactive) | > 68.2 µM (inactive) | 61.5 µM (inactive) | > 100 µM (inactive) | > 100 µM (inactive) | > 100 µM (inactive) | > 92 µM (inactive) | > 45.1 µM (inactive) | > 100 µM (inactive) | > 100 µM (inactive) | > 100 µM (inactive)
C=CC(Cl)(CBr)CCC(Br)C(C)(C)Cl (centres undefined) | 31.3 µM (inactive) | 21.4 µM (inactive) | 12.8 µM (inactive) | 4.05 µM (inactive) | 16.3 µM (inactive) | 19.5 µM (inactive) | 14.5 µM (inactive) | 17.7 µM (inactive) | 18.7 µM (inactive) | > 100 µM (inactive) | 17 µM (inactive) | 10.6 µM (inactive) | 15.6 µM (inactive) | 20.8 µM (inactive) | 17.3 µM (inactive) | 19.2 µM (inactive) | 16.6 µM (inactive) | 14.4 µM (inactive) | 14.3 µM (inactive) | 12.7 µM (inactive)
COC1CCC(O)C(/C=C/[N+](=O)[O-])C1 (centres undefined) | 10.6 µM (inactive) | 2.58 µM (inactive) | 1.93 µM (inactive) | 1.8 µM (inactive) | 5.41 µM (inactive) | 12.5 µM (inactive) | 4.82 µM (inactive) | 1.99 µM (inactive) | – | 2.07 µM (inactive) | 3.91 µM (inactive) | 10.9 µM (inactive) | 1.95 µM (inactive) | 3.37 µM (inactive) | 13.4 µM (inactive) | 9.68 µM (inactive) | 11.3 µM (inactive) | 2.19 µM (inactive) | 2.01 µM (inactive) | 6.24 µM (inactive)
COCC1OC(OC2OCC3OC4(OCC(O)(C(C)OC)C5OCOC54)OC3C2OC)C(OC)C(O)C1OC1OC(C)C(OC)C(OC2OC(C)C3OC4(CC(O)C(OC5CC(OC6CC(C)([N+](=O)[O-])C(OC)C(C)O6)C(OC(=O)c6c(C)c(Cl)c(O)c(Cl)c6OC)C(C)O5)C(C)O4)OC3(C)C2O)C1O (centres undefined) | > 100 µM (inactive) | > 100 µM (inactive) | > 100 µM (inactive) | > 100 µM (inactive) | > 100 µM (inactive) | > 100 µM (inactive) | > 100 µM (inactive) | > 100 µM (inactive) | – | > 100 µM (inactive) | > 100 µM (inactive) | > 100 µM (inactive) | > 100 µM (inactive) | > 100 µM (inactive) | > 100 µM (inactive) | > 100 µM (inactive) | > 100 µM (inactive) | > 100 µM (inactive) | > 100 µM (inactive) | > 100 µM (inactive)
CN1CC(c2ccccc2)C(O)(C2(c3ccccc3)CN(C)CC(c3ccccc3)C2=O)C(c2ccccc2)C1 (centres undefined) | > 100 µM (inactive) | > 100 µM (inactive) | 75.3 µM (inactive) | 22.4 µM (inactive) | 77.1 µM (inactive) | 50.1 µM (inactive) | > 100 µM (inactive) | > 100 µM (inactive) | – | > 100 µM (inactive) | > 100 µM (inactive) | > 100 µM (inactive) | > 100 µM (inactive) | > 100 µM (inactive) | > 100 µM (inactive) | – | > 100 µM (inactive) | > 100 µM (inactive) | > 100 µM (inactive) | > 100 µM (inactive)
O=C(Cc1nc2ccc(C(=O)c3ccccc3)cc2nc1O)C(=O)Nc1ccccc1[N+](=O)[O-] | > 100 µM (inactive) | 58.9 µM (inactive) | 57 µM (inactive) | 40.3 µM (inactive) | – | 65.9 µM (inactive) | 38.1 µM (inactive) | 39.4 µM (inactive) | 80.9 µM (inactive) | 13.8 µM (inactive) | 42.2 µM (inactive) | 34.4 µM (inactive) | 33.5 µM (inactive) | 87.7 µM (inactive) | 94.8 µM (inactive) | 26.2 µM (inactive) | 54.3 µM (inactive) | 88.5 µM (inactive) | > 100 µM (inactive) | 55.3 µM (inactive)
